Data published in patent US20240368169A1 (priority 2021, published 2024).

Tests used:
[1] = target: recombinant poly(ADP-ribose) polymerase 2 (PARP2) (Homo sapiens, UniProt Q9UGN5); experiment: biochemical; settings: inhibition of PARP2 enzyme activity, chemiluminescence
MDA-MB-436 cells = experiment: Growth inhibition assay against BRCA mutant human breast cancer MDA-MB-436 cell line (CCK-8, 7 days); format: cell-based
[2] = target: recombinant poly(ADP-ribose) polymerase 1 (PARP1) (Homo sapiens, UniProt P09874); experiment: biochemical; settings: inhibition of PARP1 enzyme activity, chemiluminescence
[3] = results of clinical trials; cited from earlier work
[4] = system: TNKS1/2 (Tankyrase 1 or Tankyrase 2); settings: compared with other PARP inhibitors, biochemical assay; cited from earlier work

Sequence of recombinant poly(ADP-ribose) polymerase 2 (PARP2) (Q9UGN5 whole entry): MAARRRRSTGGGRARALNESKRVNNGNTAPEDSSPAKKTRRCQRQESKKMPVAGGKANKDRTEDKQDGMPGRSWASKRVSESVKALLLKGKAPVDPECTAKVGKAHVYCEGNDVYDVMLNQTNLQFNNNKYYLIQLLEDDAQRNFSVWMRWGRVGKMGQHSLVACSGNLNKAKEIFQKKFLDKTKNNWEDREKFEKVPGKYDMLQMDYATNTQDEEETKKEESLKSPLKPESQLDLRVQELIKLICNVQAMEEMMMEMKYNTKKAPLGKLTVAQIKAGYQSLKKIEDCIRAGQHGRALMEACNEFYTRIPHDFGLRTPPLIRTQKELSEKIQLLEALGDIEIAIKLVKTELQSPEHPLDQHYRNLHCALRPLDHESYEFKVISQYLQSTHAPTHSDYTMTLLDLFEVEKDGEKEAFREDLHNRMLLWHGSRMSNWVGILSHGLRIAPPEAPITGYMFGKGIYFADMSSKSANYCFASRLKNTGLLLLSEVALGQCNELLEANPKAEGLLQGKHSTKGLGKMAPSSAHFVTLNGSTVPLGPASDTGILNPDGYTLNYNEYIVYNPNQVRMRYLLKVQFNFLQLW
Sequence of recombinant poly(ADP-ribose) polymerase 1 (PARP1) (P09874 whole entry): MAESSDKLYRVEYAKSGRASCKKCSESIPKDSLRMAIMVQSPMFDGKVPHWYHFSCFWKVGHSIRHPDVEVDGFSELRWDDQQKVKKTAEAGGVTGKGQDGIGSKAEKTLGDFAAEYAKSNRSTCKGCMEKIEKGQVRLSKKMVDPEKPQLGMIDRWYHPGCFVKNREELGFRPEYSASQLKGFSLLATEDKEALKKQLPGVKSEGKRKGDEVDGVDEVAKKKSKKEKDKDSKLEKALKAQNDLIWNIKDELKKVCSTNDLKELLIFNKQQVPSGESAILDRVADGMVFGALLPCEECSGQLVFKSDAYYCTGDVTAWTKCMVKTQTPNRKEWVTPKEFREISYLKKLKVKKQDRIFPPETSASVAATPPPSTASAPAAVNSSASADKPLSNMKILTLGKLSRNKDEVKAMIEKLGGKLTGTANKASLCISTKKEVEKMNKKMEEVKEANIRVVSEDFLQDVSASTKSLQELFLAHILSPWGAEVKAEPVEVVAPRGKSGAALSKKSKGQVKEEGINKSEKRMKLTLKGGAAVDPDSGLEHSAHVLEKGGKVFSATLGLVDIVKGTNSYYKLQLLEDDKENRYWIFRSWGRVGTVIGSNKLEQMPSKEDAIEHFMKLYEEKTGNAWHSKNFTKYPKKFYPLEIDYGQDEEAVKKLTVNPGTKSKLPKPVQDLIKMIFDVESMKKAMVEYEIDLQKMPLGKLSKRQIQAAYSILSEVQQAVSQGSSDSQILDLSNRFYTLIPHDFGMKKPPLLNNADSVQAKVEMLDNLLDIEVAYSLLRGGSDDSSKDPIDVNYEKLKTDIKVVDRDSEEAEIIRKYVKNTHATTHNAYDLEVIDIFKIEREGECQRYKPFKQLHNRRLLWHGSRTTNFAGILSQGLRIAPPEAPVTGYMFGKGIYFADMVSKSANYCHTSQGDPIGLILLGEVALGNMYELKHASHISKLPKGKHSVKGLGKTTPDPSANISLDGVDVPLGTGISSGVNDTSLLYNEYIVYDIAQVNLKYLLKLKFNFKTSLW

CNC(=O)c1ccc(N2CCN(Cc3cc(F)c4c5c(c(=O)[nH]c4c3)CCC5)CC2)c(F)n1 [Example 80, 7-((4-(2-fluoro-6-(methylcarbamoyl)pyridin-3-yl)piperazin-1-yl)methyl)-9-fluoro-1,2,3,5-tetrahydro-4H-cyclopenta[c]quinolin-4-one]
IC50 [1]: 32 nM | IC50 (MDA-MB-436 cells): 2.37 nM | IC50 [2]: 2.26 nM

CNC(=O)c1ccc(N2CCN(Cc3cc(F)c4c(c3)[nH]c(=O)c3cc(Cl)nn34)CC2)c(C)n1 [Example 87, 7-((4-(2-methyl-6-(methylcarbamoyl)pyridin-3-yl)piperazin-1-yl)methyl)-2-chloro-9-fluoropyrazolo[1,5-a]quinoxalin-4(5H)-one]
IC50 [1]: 84.1 nM | IC50 (MDA-MB-436 cells): 0.94 nM | IC50 [2]: 1.22 nM

CNC(=O)c1ccc(N2CCN(Cc3cc(F)c4c(c3)[nH]c(=O)c3cc(Cl)nn34)CC2)c(F)n1 [Example 88, 7-((4-(2-fluoro-6-(methylcarbamoyl)pyridin-3-yl)piperazin-1-yl)methyl)-2-chloro-9-fluoropyrazolo[1,5-a]quinoxalin-4(5H)-one]
IC50 [1]: 80.3 nM | IC50 (MDA-MB-436 cells): 0.38 nM | IC50 [2]: 1.72 nM

Cc1nc(C(N)=O)ccc1N1CCN(Cc2cc(F)c3c(c2)[nH]c(=O)c2ccnn23)CC1 [Example 89, 7-((4-(2-methyl-6-(carbamoyl)pyridin-3-yl)piperazin-1-yl)methyl)-9-fluoropyrazolo[1,5-a]quinoxalin-4(5H)-one]
IC50 [1]: 861 nM | IC50 (MDA-MB-436 cells): 2.22 nM | IC50 [2]: 1.72 nM

CCNC(=O)c1ccc(N2CCN(Cc3cc(F)c4c(c3)[nH]c(=O)c3ccnn34)CC2)c(C)n1 [Example 91, 7-((4-(2-methyl-6-(ethylcarbamoyl)pyridin-3-yl)piperazin-1-yl)methyl)-9-fluoropyrazolo[1,5-a]quinoxalin-4(5H)-one]
IC50 [1]: 627 nM | IC50 (MDA-MB-436 cells): 2.81 nM | IC50 [2]: 1.39 nM

Cc1nc(C(=O)NC2CC2)ccc1N1CCN(Cc2cc(F)c3c(c2)[nH]c(=O)c2ccnn23)CC1 [Example 92, 7-((4-(2-methyl-6-(cyclopropylcarbamoyl)pyridin-3-yl)piperazin-1-yl)methyl)-9-fluoropyrazolo[1,5-a]quinoxalin-4(5H)-one]
IC50 [1]: 238 nM | IC50 (MDA-MB-436 cells): 5.05 nM | IC50 [2]: 1.38 nM

CNC(=O)c1ccc(N2CCN(Cc3ccc4c([nH]c(=O)c5ccnn54)c3F)CC2)c(C)n1 [Example 94, 7-((4-(2-methyl-6-(methylcarbamoyl)pyridin-3-yl)piperazin-1-yl)methyl)-6-fluoropyrazolo[1,5-a]quinoxalin-4(5H)-one]
IC50 [1]: > 10000 nM | IC50 (MDA-MB-436 cells): 5.05 nM | IC50 [2]: 2.69 nM

CNC(=O)c1ccc(N2CCN(Cc3ccc4c([nH]c(=O)c5ccnn54)c3F)CC2)c(F)n1 [Example 95, 7-((4-(2-fluoro-6-(methylcarbamoyl)pyridin-3-yl)piperazin-1-yl)methyl)-6-fluoropyrazolo[1,5-a]quinoxalin-4(5H)-one]
IC50 [1]: 886 nM | IC50 (MDA-MB-436 cells): 6.78 nM | IC50 [2]: 1.82 nM

CNC(=O)c1ccc(N2CCN(Cc3ccc4c(c3)[nH]c(=O)c3c(Cl)cnn34)CC2)c(C)n1 [Example 98, 7-((4-(2-methyl-6-(methylcarbamoyl)pyridin-3-yl)piperazin-1-yl)methyl)-3-chloropyrazolo[1,5-a]quinoxalin-4(5H)-one]
IC50 [1]: 41 nM | IC50 (MDA-MB-436 cells): 0.62 nM | IC50 [2]: 1.91 nM

CNC(=O)c1ccc(N2CCN(Cc3ccc4c(c3)[nH]c(=O)c3cc(Cl)nn34)CC2)c(C)n1 [Example 100, 7-((4-(2-methyl-6-(methylcarbamoyl)pyridin-3-yl)piperazin-1-yl)methyl)-2-chloropyrazolo[1,5-a]quinoxalin-4(5H)-one]
IC50 [1]: 65.6 nM | IC50 (MDA-MB-436 cells): 0.68 nM | IC50 [2]: 0.95 nM

CNC(=O)c1ccc(N2CCN(Cc3ccc4c(c3)[nH]c(=O)c3c(C)c(C)nn34)CC2)c(C)n1 [Example 101, 7-((4-(2-methyl-6-(methylcarbamoyl)pyridin-3-yl)piperazin-1-yl)methyl)-2,3-dimethylpyrazolo[1,5-a]quinoxalin-4(5H)-one]
IC50 [1]: 35.6 nM | IC50 (MDA-MB-436 cells): 2.48 nM | IC50 [2]: 4.43 nM

CNC(=O)c1ccc(N2CCN(Cc3cc(C)c4c(c3)[nH]c(=O)c3ccnn34)CC2)c(C)n1 [Example 102, 7-((4-(2-methyl-6-(methylcarbamoyl)pyridin-3-yl)piperazin-1-yl)methyl)-9-methylpyrazolo[1,5-a]quinoxalin-4(5H)-one]
IC50 [1]: 101 nM | IC50 (MDA-MB-436 cells): 2.24 nM | IC50 [2]: 6.91 nM

CNC(=O)c1ccc(N2CCN(Cc3ccc4c([nH]c(=O)c5cc(Cl)nn54)c3F)CC2)c(C)n1 [Example 103, 7-((4-(2-methyl-6-(methylcarbamoyl)pyridin-3-yl)piperazin-1-yl)methyl)-6-fluoro-2-chloropyrazolo[1,5-a]quinoxalin-4(5H)-one]
IC50 [1]: 1250 nM | IC50 (MDA-MB-436 cells): 1.17 nM | IC50 [2]: 0.76 nM

CNC(=O)c1ccc(N2CCN(Cc3cc(F)c4c(c3)[nH]c(=O)c3sccc34)CC2)c(C)n1 [Example 114, 7-((4-(2-methyl-6-(methylcarbamoyl)pyridin-3-yl)piperazin-1-yl)methyl)-9-fluorothieno[2,3-c]quinolin-4(5H)-one]
IC50 [1]: 16.9 nM | IC50 (MDA-MB-436 cells): 3.72 nM | IC50 [2]: 0.67 nM

CNC(=O)c1ccc(N2CCN(Cc3ccc4c([nH]c(=O)c5cc(C)nn54)c3F)CC2)c(F)n1 [Example 115, 7-((4-(2-fluoro-6-(methylcarbamoyl)pyridin-3-yl)piperazin-1-yl)methyl)-6-fluoro-2-methylpyrazolo[1,5-a]quinoxalin-4(5H)-one]
IC50 [1]: 288 nM | IC50 (MDA-MB-436 cells): 1.98 nM | IC50 [2]: 1.45 nM

Cc1nc(C(=O)NCO)ccc1N1CCN(Cc2cc(F)c3c(c2)[nH]c(=O)c2ccnn23)CC1 [Example 117, 7-((4-(2-methyl-6-(N-(hydroxymethyl)carbamoyl)pyridin-3-yl)piperazin-1-yl)methyl)-9-fluoropyrazolo[1,5-a]quinoxalin-4(5H)-one]
IC50 [1]: 645 nM | IC50 (MDA-MB-436 cells): 4.74 nM | IC50 [2]: 0.91 nM

CNC(=O)c1ccc(N2CCN(Cc3cc(F)c4c(c3)[nH]c(=O)n3ccnc43)CC2)c(Cl)n1 [Example 119, 8-((4-(2-chloro-6-(methylcarbamoyl)pyridin-3-yl)piperazin-1-yl)methyl)-10-fluoroimidazo[1,2-c]quinazolin-5(6H)-one]
IC50 [1]: 9500 nM | IC50 (MDA-MB-436 cells): 16.2 nM | IC50 [2]: 1.83 nM

Cn1ncnc1[C@H]1c2n[nH]c(=O)c3cc(F)cc(c23)N[C@@H]1c1ccc(F)cc1 [Talazoparib]
toxicity [3]: toxicity similar to chemotherapy drugs such as hair loss | inhibitory activity against TNKS1/2 [4]: more potent inhibitory activity
